The values below come from PubChem BioAssay (NCI).

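96-well plates; 48 h exposure; 5 concentrations. Endpoints by linear interpolation between flanking doses. Not reached: highest tested concentration assigned. GI50 marks 50% less growth. The concentration for full growth arrest is given as TGI.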 Active and inactive are the calls of the source. Rule as the data show it: active = GI50 below about 0.43 µM; inactive = the rest. Some results are limits rather than exact numbers.

Among the test systems are DLD-1 colon; DMS 114 small cell lung; DMS 273 small cell lung; KM20L2 colon; LXFL 529 NSCLC; RXF-631 renal; SNB-78 CNS; XF 498 CNS.
Common to all, as to test: NCI anticancer screen, dose series, 48 h

As to `COc1ccc(/C(Cl)=C(\C=O)c2ccc([N+](=O)[O-])cc2)cc1`, the TGI in the assay on DLD-1 colon was 63.1 µM; with DMS 114 small cell lung, 68.5 µM; in the assay with DMS 273 small cell lung, 58.7 µM; in the assay on KM20L2 colon, 41.8 µM; in the assay with LXFL 529 NSCLC it was over 27.6 µM; in the assay with RXF-631 renal, 68.3 µM. Besides, the TGI with SNB-78 CNS is 50.1 µM; with XF 498 CNS it was 40.4 µM.

In the case of `O=C(/C=C/c1c(O)ccc2ccccc12)c1ccccc1`, the TGI in the assay on DLD-1 colon, in the assay with DMS 114 small cell lung, with DMS 273 small cell lung, in the assay on KM20L2 colon, in the assay on LXFL 529 NSCLC and in the assay with RXF-631 renal was over 100 µM each time. Also, the TGI with SNB-78 CNS and with XF 498 CNS was over 100 µM each time.

On to `N.N.O=C([O-])P(=O)([O-])[O-].[Na+].[Pt+4]`, for which the GI50 in the assay with DLD-1 colon, with DMS 273 small cell lung, with KM20L2 colon, in the assay with LXFL 529 NSCLC and in the assay on SNB-78 CNS was over 100 µM each time. Moreover, the TGI with DLD-1 colon, with DMS 273 small cell lung, in the assay on KM20L2 colon, in the assay on LXFL 529 NSCLC and with SNB-78 CNS was over 100 µM throughout.

On to `Cc1[nH]c2ccccc2c1C1Cc2ccccc2N1C(=O)/C(Cl)=C/c1ccccc1` (stereo not drawn), for which the TGI in the assay on DLD-1 colon, with DMS 114 small cell lung, in the assay on DMS 273 small cell lung, in the assay with KM20L2 colon, in the assay with LXFL 529 NSCLC and in the assay on RXF-631 renal was over 100 µM in each case. The TGI in the assay with SNB-78 CNS and in the assay with XF 498 CNS was over 100 µM in each case.

As for `C/C=C1/C(=C/c2[nH]c(/C=c3\[nH]/c(=C/C4=NC(=O)C(CC)=C4C)c(C)c3CCC(=O)O)c(CCC(=O)O)c2C)NC(=O)C1C` (stereo not drawn), the GI50 with DLD-1 colon, with DMS 114 small cell lung, with DMS 273 small cell lung and in the assay on SNB-78 CNS was over 150 µg/mL each time. For the same compound, the TGI with DLD-1 colon, with DMS 114 small cell lung, in the assay on DMS 273 small cell lung and with SNB-78 CNS was over 150 µg/mL in each case. Also, the outcome with KM20L2 colon, with LXFL 529 NSCLC, with RXF-631 renal and in the assay with XF 498 CNS was inactive.

In the case of `Cc1nc2ccccc2c(=O)n1-c1ccccc1F`, the TGI in the assay with DLD-1 colon, with DMS 114 small cell lung, with DMS 273 small cell lung, with KM20L2 colon, with LXFL 529 NSCLC and in the assay on SNB-78 CNS was over 100 µM in each case.

On to `COC1=CC2(C=CC1=O)c1cc(OC)c(OC)cc1CCN2C(=O)c1ccccc1` (stereo not drawn), for which the TGI with DLD-1 colon, in the assay with DMS 114 small cell lung, in the assay on DMS 273 small cell lung, in the assay with LXFL 529 NSCLC and with SNB-78 CNS was over 100 µM each time.

`CCCCCCC(=O)C/C(=N/NC(N)=S)C(=O)NC1C2CC3CC(C2)CC1C3` (stereo not drawn): the TGI in the assay with DLD-1 colon, in the assay on KM20L2 colon, in the assay with LXFL 529 NSCLC and in the assay with SNB-78 CNS was over 100 µM throughout.

As to `COc1ccc(CNc2nc3cc(C(F)(F)F)ccc3nc2C)cc1OC`, the TGI in the assay with DLD-1 colon was over 100 µM; in the assay on DMS 273 small cell lung, 48.9 µM; with KM20L2 colon, over 100 µM; with LXFL 529 NSCLC, over 100 µM; in the assay on SNB-78 CNS, 55.8 µM; with XF 498 CNS, over 100 µM.

`OC/C=C(\I)CCCOCOCc1ccccc1`: the TGI was over 100 µM in the assay with DLD-1 colon; 69 µM with DMS 114 small cell lung; 44.4 µM in the assay with DMS 273 small cell lung; over 100 µM with KM20L2 colon; over 100 µM in the assay on LXFL 529 NSCLC; over 100 µM in the assay on SNB-78 CNS. Also, in the assay on XF 498 CNS, the TGI was found to be 45.8 µM.

Regarding `N#C/C(=C\c1cc2ccccc2c2ccccc12)c1ccccc1`, the TGI in the assay with DLD-1 colon is over 90.2 µM; with DMS 114 small cell lung, over 36.1 µM; in the assay with DMS 273 small cell lung, 8.73 µM; in the assay on KM20L2 colon, 13.8 µM; in the assay on LXFL 529 NSCLC, over 100 µM; in the assay with SNB-78 CNS it was 34.2 µM. In addition, the TGI in the assay with XF 498 CNS amounted to 12.5 µM.

In the case of `COc1ccc(/C=C\c2cc(OC)c(OC)c(OC)c2)cc1OC(=O)NCCN(C)C`, the TGI was 15.9 µM in the assay with DLD-1 colon; under 0.0001 µM in the assay with DMS 114 small cell lung; 0.000109 µM with DMS 273 small cell lung; 1.17 µM with KM20L2 colon; under 0.0001 µM in the assay on XF 498 CNS. In addition, the GI50 with RXF-631 renal was 0.258 µM.

As to `COc1cc2c(c(OC)c1)C1(CC(CC#N)C2)SCCS1` (stereo not drawn), the TGI in the assay on DLD-1 colon, with DMS 114 small cell lung, in the assay on DMS 273 small cell lung, with KM20L2 colon, in the assay on LXFL 529 NSCLC and in the assay with RXF-631 renal was over 100 µM each time. Besides, in the assay on SNB-78 CNS, the TGI was over 100 µM.

As to `Nc1ncn(C2CC(O)C(CO)O2)c(=O)n1` (stereo not drawn), the TGI was over 375 µM in the assay with DLD-1 colon; over 375 µM in the assay with DMS 114 small cell lung; over 375 µM with KM20L2 colon; over 375 µM in the assay with SNB-78 CNS; over 80.8 µM with XF 498 CNS.

As to `CC1=N/C(=C\c2cccc([N+](=O)[O-])c2)C(=O)O1`, the TGI in the assay with DLD-1 colon, in the assay with DMS 114 small cell lung, in the assay with KM20L2 colon, in the assay on LXFL 529 NSCLC and in the assay with SNB-78 CNS was over 100 µM each time.

For the compound `N#CCC(=O)NC1C2CC3CC(C2)CC1C3` (stereo not drawn), the TGI in the assay on DLD-1 colon is 48.9 µM; in the assay with DMS 114 small cell lung, 30.5 µM; in the assay with DMS 273 small cell lung, 48.2 µM; in the assay with KM20L2 colon, 33.6 µM; with LXFL 529 NSCLC, over 100 µM; in the assay with SNB-78 CNS, 43 µM.

For `CN(C)C(c1ccccc1)C(O)c1ccccc1` (stereo not drawn), the TGI in the assay with DLD-1 colon, in the assay with DMS 114 small cell lung, in the assay with DMS 273 small cell lung, in the assay with KM20L2 colon, in the assay on LXFL 529 NSCLC and with RXF-631 renal was over 100 µM throughout. In addition, the TGI with SNB-78 CNS and in the assay on XF 498 CNS was over 100 µM throughout.
